This note sets out measurements from patent US20230130925A1 (priority 2020, published 2023).

Like-named read-outs stand apart in the source and are kept apart here.

The subject of data set [1] is Influenza A.
In data set [2] the test system is SARS-cov2. Particulars: person.

Regarding `Cc1nc(Nc2ncc(C(=O)Nc3c(C)cccc3Cl)s2)cc(N2CCN(CCO)CC2)n1` [Dasatinib, reference compound], the tolerability result in data set [1] (human, in vivo, po) was “tolerates the medication well”.
Consider “Tocilizumab: anti-IL-6 receptor antibody molecule”, for which, in data set [2] (COPD and diabetes, O2 saturation 87%, Tocilizumab 8 mg/Kg by auto-injector), the clinical course result is on record as “stabilization”. In addition, the “patient's condition” value in data set [2] (fever >38.5° C., O2 saturation 92%, Tocilizumab 8 mg/Kg intravenous infusion) is “condition stabilizes initially”. Further, in data set [2] (Tocilizumab 8 mg/Kg by auto-injector), the tolerability entry is recorded as “tolerates the medication well”. Moreover, in data set [1] (person with ARDS and shock, after Tocilizumab 600 mg i.v.), the “renal and neurological status” value is “continues to have renal and neurological deterioration”.

B1: Sarilumab: anti-IL-6 receptor antibody molecule (antibody, chains of the INN, looked up, V domains shown)
VH: EVQLVESGGGLVQPGRSLRLSCAASRFTFDDYAMHWVRQAPGKGLEWVSGISWNSGRIGYADSVKGRFTISRDNAENSLFLQMNGLRAEDTALYYCAKGRDSFDIWGQGTMVTVSS
VL: DIQMTQSPSSVSASVGDRVTITCRASQGISSWLAWYQQKPGKAPKLLIYGASSLESGVPSRFSGSGSGTDFTLTISSLQPEDFASYYCQQANSFPYTFGQGTKLEIK
As to B1, the tolerability result in data set [2] (COPD and hypertension, O2 saturation 89%, Sarilumab 200 mg subcutaneous, self-administered) is “tolerates the medication well”.
